Legend:
Type in all cases: in vivo
[1] = test system: barnyardgrass (Echinochloa crus-galli); assay: Test A postemergence, barnyardgrass; conditions: 0 to 100 scale
Excerpt: (§1) Seeds of plant species selected from barnyardgrass (Echinochloa crus-galli), crabgrass (large crabgrass, Digitaria sanguinalis), kochia (Kochia scoparia), ragweed (common ragweed, Ambrosia elatior), morningglory (Ipomoea spp.), velvetleaf (Abutilon theophrasti), ryegrass, It. (Italian ryegrass, Lolium multiflorum), foxtail, giant (giant foxtail, Setaria faberii), wheat (Triticum aestivum), corn (Zea mays), and pigweed (Amaranthus retroflexus), were planted into a blend of loam soil and sand and treated preemergence with a directed soil spray using test chemicals formulated in a non-phytotoxic solvent mixture which included a surfactant. At the same time, plants selected from these crop and weed species and also blackgrass (Alopecurus myosuroides), and galium (catchweed bedstraw, Galium aparine), were planted in pots containing the same blend of loam soil and sand and treated with postemergence applications of test chemicals formulated in the same manner. Plants ranged in height from 2 to 10 cm and were in the one- to two-leaf stage for the postemergence treatment. Treated plants and untreated controls were maintained in a greenhouse for approximately 10 d, after which time all treated plants were compared to untreated controls and visually evaluated for injury. Plant response ratings, summarized in Table A, are based on a 0 to 100 scale where 0 is no effect and 100 is complete control. A dash (-) response means no test result.

[2] = test system: ragweed (common ragweed, Ambrosia elatior); assay: Test A preemergence, ragweed; conditions: 0 to 100 scale
Excerpt: as §1

[3] = test system: ragweed (common ragweed, Ambrosia elatior); assay: Test A postemergence, ragweed; conditions: 0 to 100 scale
Excerpt: as §1

[4] = test system: foxtail, giant (giant foxtail, Setaria faberii); assay: Test A postemergence, foxtail, giant; conditions: 0 to 100 scale
Excerpt: as §1

[5] = test system: ryegrass, It. (Italian ryegrass, Lolium multiflorum); assay: Test A postemergence, ryegrass, It.; conditions: 0 to 100 scale
Excerpt: as §1

[6] = test system: barnyardgrass (Echinochloa crus-galli); assay: Test A preemergence, barnyardgrass; conditions: 0 to 100 scale
Excerpt: as §1

[7] = test system: galium (catchweed bedstraw, Galium aparine); assay: Test A postemergence, galium; conditions: 0 to 100 scale
Excerpt: as §1

[8] = test system: sedge, umbrella (small-flower umbrella sedge, Cyperus difformis); assay: Test B flooded paddy test, sedge, umbrella; conditions: Flood, 500 g ai/ha; scale of 0 to 100 where 0 is no effect and 100 is complete control; 13 to 15 d
Experimental: (§2) Plant species in the flooded paddy test selected from rice (Oryza sativa), sedge, umbrella (small-flower umbrella sedge, Cyperus difformis), ducksalad (Heteranthera limosa), and barnyardgrass (Echinochloa crus-galli) were grown to the 2-leaf stage for testing. At time of treatment, test pots were flooded to 3 cm above the soil surface, treated by application of test compounds directly to the paddy water, and then maintained at that water depth for the duration of the test. Treated plants and controls were maintained in a greenhouse for 13 to 15 d, after which time all species were compared to controls and visually evaluated. Plant response ratings, summarized in Table B, are based on a scale of 0 to 100 where 0 is no effect and 100 is complete control. A dash (-) response means no test result.

[9] = test system: pigweed (Amaranthus retroflexus); assay: Test A preemergence, pigweed; conditions: 0 to 100 scale
Excerpt: as §1

[10] = test system: ducksalad (Heteranthera limosa); assay: Test B flooded paddy test, ducksalad; conditions: Flood, 500 g ai/ha; scale of 0 to 100 where 0 is no effect and 100 is complete control; 13 to 15 d
Experimental: as §2

corn (Zea mays) = assay: Test A postemergence, corn; conditions: 0 to 100 scale
Excerpt: as §1

[11] = test system: foxtail, giant (giant foxtail, Setaria faberii); assay: Test A preemergence, foxtail, giant; conditions: 0 to 100 scale
Excerpt: as §1

[12] = test system: ryegrass, It. (Italian ryegrass, Lolium multiflorum); assay: Test A preemergence, ryegrass, It.; conditions: 0 to 100 scale
Excerpt: as §1

rice (Oryza sativa) = assay: Test B flooded paddy test, rice; conditions: Flood, 500 g ai/ha; scale of 0 to 100 where 0 is no effect and 100 is complete control; 13 to 15 d
Experimental: as §2

[13] = test system: barnyardgrass (Echinochloa crus-galli); assay: Test B flooded paddy test, barnyardgrass; conditions: Flood, 500 g ai/ha; scale of 0 to 100 where 0 is no effect and 100 is complete control; 13 to 15 d
Experimental: as §2

[14] = test system: wheat (Triticum aestivum); assay: Test A postemergence, wheat; conditions: 0 to 100 scale
Excerpt: as §1

kochia (Kochia scoparia) [15] = assay: Test A postemergence, kochia; conditions: 0 to 100 scale
Excerpt: as §1

kochia (Kochia scoparia) [16] = assay: Test A preemergence, kochia; conditions: 0 to 100 scale
Excerpt: as §1

[17] = test system: blackgrass (Alopecurus myosuroides); assay: Test A postemergence, blackgrass; conditions: 0 to 100 scale
Excerpt: as §1

[18] = test system: pigweed (Amaranthus retroflexus); assay: Test A postemergence, pigweed; conditions: 0 to 100 scale
Excerpt: as §1

Structure (SMILES): O=C1NCC(Cc2ccccc2C(F)(F)F)C1C(=O)Nc1cccc(F)c1F (stereo not drawn) [Compound 9]
- Plant response rating, Barnyardgrass ([1]; 125 g ai/ha): 10
- Plant response rating, Barnyardgrass ([1]; 500 g ai/ha): 60
- Plant response rating, Ragweed ([2]; 125 g ai/ha): 0
- Plant response rating, Ragweed ([2]; 500 g ai/ha): 30
- Plant response rating, Ragweed ([3]; 125 g ai/ha): 0
- Plant response rating, Ragweed ([3]; 500 g ai/ha): 0
- Plant response rating, Foxtail, Giant ([4]; 125 g ai/ha): 0
- Plant response rating, Foxtail, Giant ([4]; 500 g ai/ha): 0
- Plant response rating, Ryegrass, It. ([5]; 125 g ai/ha): 0
- Plant response rating, Ryegrass, It. ([5]; 500 g ai/ha): 0
- Plant response rating, Barnyardgrass ([6]; 125 g ai/ha): 0
- Plant response rating, Barnyardgrass ([6]; 500 g ai/ha): 50
- Plant response rating, Galium ([7]; 125 g ai/ha): 0
- Plant response rating, Galium ([7]; 500 g ai/ha): 0
- Plant response rating, Sedge, Umbrella [8]: 0
- Plant response rating, Pigweed ([9]; 125 g ai/ha): 0
- Plant response rating, Pigweed ([9]; 500 g ai/ha): 0
- Plant response rating, Ducksalad [10]: 40
- Plant response rating, Corn (corn (Zea mays); 125 g ai/ha): 0
- Plant response rating, Corn (corn (Zea mays); 500 g ai/ha): 0
- Plant response rating, Foxtail, Giant ([11]; 125 g ai/ha): 0
- Plant response rating, Foxtail, Giant ([11]; 500 g ai/ha): 50
- Plant response rating, Ryegrass, It. ([12]; 125 g ai/ha): 0
- Plant response rating, Ryegrass, It. ([12]; 500 g ai/ha): 0
- Plant response rating, Rice (rice (Oryza sativa)): 0
- Plant response rating, Barnyardgrass [13]: 0
- Plant response rating, Wheat ([14]; 125 g ai/ha): 0
- Plant response rating, Wheat ([14]; 500 g ai/ha): 0
- Plant response rating, Kochia (kochia (Kochia scoparia) [15]; 125 g ai/ha): 0
- Plant response rating, Kochia (kochia (Kochia scoparia) [15]; 500 g ai/ha): 30
- Plant response rating, Kochia (kochia (Kochia scoparia) [16]; 125 g ai/ha): 0
- Plant response rating, Kochia (kochia (Kochia scoparia) [16]; 500 g ai/ha): 50
- Plant response rating, Blackgrass ([17]; 125 g ai/ha): 0
- Plant response rating, Blackgrass ([17]; 500 g ai/ha): 0
- Plant response rating, Pigweed ([18]; 125 g ai/ha): 0
- Plant response rating, Pigweed ([18]; 500 g ai/ha): 0

Structure (SMILES): O=C1NCC(Cc2cccc(F)c2F)C1C(=O)Nc1ccccc1C(F)(F)F (stereo not drawn) [Compound 10]
- Plant response rating, Barnyardgrass ([1]; 125 g ai/ha): 0
- Plant response rating, Barnyardgrass ([1]; 500 g ai/ha): 0
- Plant response rating, Ragweed ([2]; 125 g ai/ha): 0
- Plant response rating, Ragweed ([2]; 500 g ai/ha): 0
- Plant response rating, Ragweed ([3]; 125 g ai/ha): 0
- Plant response rating, Ragweed ([3]; 500 g ai/ha): 0
- Plant response rating, Foxtail, Giant ([4]; 125 g ai/ha): 0
- Plant response rating, Foxtail, Giant ([4]; 500 g ai/ha): 0
- Plant response rating, Ryegrass, It. ([5]; 125 g ai/ha): 0
- Plant response rating, Ryegrass, It. ([5]; 500 g ai/ha): 0
- Plant response rating, Barnyardgrass ([6]; 125 g ai/ha): 0
- Plant response rating, Barnyardgrass ([6]; 500 g ai/ha): 0
- Plant response rating, Galium ([7]; 125 g ai/ha): 0
- Plant response rating, Galium ([7]; 500 g ai/ha): 0
- Plant response rating, Sedge, Umbrella [8]: 0
- Plant response rating, Pigweed ([9]; 125 g ai/ha): 0
- Plant response rating, Pigweed ([9]; 500 g ai/ha): 0
- Plant response rating, Ducksalad [10]: 0
- Plant response rating, Corn (corn (Zea mays); 125 g ai/ha): 0
- Plant response rating, Corn (corn (Zea mays); 500 g ai/ha): 0
- Plant response rating, Foxtail, Giant ([11]; 125 g ai/ha): 0
- Plant response rating, Foxtail, Giant ([11]; 500 g ai/ha): 0
- Plant response rating, Ryegrass, It. ([12]; 125 g ai/ha): 0
- Plant response rating, Ryegrass, It. ([12]; 500 g ai/ha): 0
- Plant response rating, Rice (rice (Oryza sativa)): 0
- Plant response rating, Barnyardgrass [13]: 0
- Plant response rating, Wheat ([14]; 125 g ai/ha): 0
- Plant response rating, Wheat ([14]; 500 g ai/ha): 0
- Plant response rating, Kochia (kochia (Kochia scoparia) [15]; 125 g ai/ha): 0
- Plant response rating, Kochia (kochia (Kochia scoparia) [15]; 500 g ai/ha): 0
- Plant response rating, Kochia (kochia (Kochia scoparia) [16]; 125 g ai/ha): 0
- Plant response rating, Kochia (kochia (Kochia scoparia) [16]; 500 g ai/ha): 0
- Plant response rating, Blackgrass ([17]; 125 g ai/ha): 0
- Plant response rating, Blackgrass ([17]; 500 g ai/ha): 0
- Plant response rating, Pigweed ([18]; 125 g ai/ha): 0
- Plant response rating, Pigweed ([18]; 500 g ai/ha): 0

Structure (SMILES): O=C1NCC(Cc2cccc(C(F)(F)F)c2)C1C(=O)Nc1cccc(F)c1F (stereo not drawn) [Compound 11]
- Plant response rating, Barnyardgrass ([1]; 125 g ai/ha): 0
- Plant response rating, Barnyardgrass ([1]; 500 g ai/ha): 0
- Plant response rating, Ragweed ([2]; 125 g ai/ha): 0
- Plant response rating, Ragweed ([2]; 500 g ai/ha): 0
- Plant response rating, Ragweed ([3]; 125 g ai/ha): 0
- Plant response rating, Ragweed ([3]; 500 g ai/ha): 0
- Plant response rating, Foxtail, Giant ([4]; 125 g ai/ha): 0
- Plant response rating, Foxtail, Giant ([4]; 500 g ai/ha): 0
- Plant response rating, Ryegrass, It. ([5]; 125 g ai/ha): 0
- Plant response rating, Ryegrass, It. ([5]; 500 g ai/ha): 0
- Plant response rating, Barnyardgrass ([6]; 125 g ai/ha): 0
- Plant response rating, Barnyardgrass ([6]; 500 g ai/ha): 0
- Plant response rating, Galium ([7]; 125 g ai/ha): 0
- Plant response rating, Galium ([7]; 500 g ai/ha): 0
- Plant response rating, Sedge, Umbrella [8]: 0
- Plant response rating, Pigweed ([9]; 125 g ai/ha): 0
- Plant response rating, Pigweed ([9]; 500 g ai/ha): 0
- Plant response rating, Ducksalad [10]: 0
- Plant response rating, Corn (corn (Zea mays); 125 g ai/ha): 0
- Plant response rating, Corn (corn (Zea mays); 500 g ai/ha): 0
- Plant response rating, Foxtail, Giant ([11]; 125 g ai/ha): 0
- Plant response rating, Foxtail, Giant ([11]; 500 g ai/ha): 0
- Plant response rating, Ryegrass, It. ([12]; 125 g ai/ha): 0
- Plant response rating, Ryegrass, It. ([12]; 500 g ai/ha): 0
- Plant response rating, Rice (rice (Oryza sativa)): 0
- Plant response rating, Barnyardgrass [13]: 0
- Plant response rating, Wheat ([14]; 125 g ai/ha): 0
- Plant response rating, Wheat ([14]; 500 g ai/ha): 0
- Plant response rating, Kochia (kochia (Kochia scoparia) [15]; 125 g ai/ha): 0
- Plant response rating, Kochia (kochia (Kochia scoparia) [15]; 500 g ai/ha): 0
- Plant response rating, Kochia (kochia (Kochia scoparia) [16]; 125 g ai/ha): 0
- Plant response rating, Kochia (kochia (Kochia scoparia) [16]; 500 g ai/ha): 0
- Plant response rating, Blackgrass ([17]; 125 g ai/ha): 0
- Plant response rating, Blackgrass ([17]; 500 g ai/ha): 0
- Plant response rating, Pigweed ([18]; 125 g ai/ha): 0
- Plant response rating, Pigweed ([18]; 500 g ai/ha): 0

From patent US10906873B2, “Substituted cyclic amides as herbicides” (FMC Corporation, priority 2015, dated 2021)
